Laboratory results from PMC4257840 (Journal of Medicinal Chemistry, 2014).

Tested on: Human pancreatic trypsin
Assay: Protease counter-screening: Trypsin
Assay type: biochemical
Details: 10 µM
Method: Appendix 7. Protease Counter -Screening
Protease counter-screeni ng was performed using the methods described below. Initial screening was conducted in duplicate using a single test substance concentration of 10 µ M .
Additional assays were conducted in replicate for selected pairin gs of test s ubstance and enz yme in order to enable the determination of IC50 values using conventional procedures.
Determination of K i was made using the Batch K i program (Biokin Ltd, Pullman, WA) to derive values from the Morrison equation: […]
Where [E ] is the active enz yme concentration, Kiapp is the apparent inhibition const ant, v 0 is the control velocit y in the absence of inhibitors, vb is the background velocity, v is the initial reaction velocit y in the presence of inhibitor, and I is the inhibitor concentration.Thence:
Where [S ] is the substrate concentration and KM is the Michealis constant.
Caspase 1: Activity against human recombinant caspase 1 expressed in E. coli was tested using Ac-YVAD- AMC as the substrate. Test compound or vehicle was pre- incubated with 600 […]
followed by excitation/emission at 485/535 nm. […]
AMC formation was read at 360 nm/465 nm.
Cathepsin L2: Human recombinant cathepsin L2 expressed in NS0 cells was used as the enzyme source. […] Form ation of AMC was measured at 360 […]
The amount of AMC formed was read spectrofluorimetricall y at 360 nm/465 nm. […]

CC(C)[C@H](NC(=O)[C@H](C)NC(=O)[C@@H](NC(=O)c1ccccc1)C(C)(C)C)C(=O)C(=O)NCc1ccccc1 [Compound 38, N-{(S)-1-[(S)-1-((S)-1-Benzylaminooxalyl-2-methyl-propylcarbamoyl)-ethylcarbamoyl]-2,2-dimethyl-propyl}-benzamide]
Trypsin inhibition: 9%
